Entries after “also recorded” stand apart in the source; their conditions may differ.
Key:
P19 cells = assay: In vitro differentiation assay of P19 cells (MAP-2 positive neurons); format: cell-based, murine; details: for MAP-2+ cells: day 8; for effect on neuronal phenotype (number of MAP-2+ cells) vs. RA+BMP-2: RA + rhBMP-2 + SM at 0.625, 1.25 and 2.5 μM
Experimental: P19 cells were grown in a-minimum essential medium (aMEM) (Gibco) containing 7.5% calf serum, 2.5% fetal calf serum, and 0.4 μl/ml penicillin—streptomycin (Gibco), at 37° C., 5% CO2. Cells were replenished with fresh medium every 48 h.
The medium, including RA, BMP supplements and SMs, was replenished after 48 h. After 4 days, aggregates which formed during RA treatment were dispersed enzymatically (0.05% v/v trypsin-0.02% v/v EDTA) and mechanically and plated in tissue culture grade dishes. At this stage, cells were cultured in RA-, BMP- and SM-free medium, which was refreshed every 48 h. MAP-2 positive neurons were examined at day 8 (i.e., day 4 post-RA treatment) by immunofluorescence. Briefly, at day 7, cells were re-cultured in 24 well-plates with cover slips at a final concentration of 5×10^4 cells/well. On day 8, cells were washed with PBS, fixed with PFA 4% for 15 min, permeabilized with 0.5% Triton Tx, blocked with 10% FCS, 0.1% BSA and 0.05% Tween for 30 min, and stained with MAP2 rabbit mAb (1:100, D5G1, Cell Signaling) for 1 hr. The second antibody step was performed by labeling with Alexa Fluor® 488-conjugated IgG antibody to rabbit for 1 h (1:1000; Molecular Probes USA).
Next, the effect of the small molecules on neurogenesis in a P19 differentiation model was measured. […] Neuronal differentiation is marked by the expression of the neuronal marker MAP-2, while the addition of BMP-2 reduces the levels of this marker. Addition of the murine anti-BMP-2/4 monoclonal antibody reverses the effect of BMP-2 and induces acquisition of neuronal phenotype. Thus, the effect of SM1, SM7 and SM9 on the expression of the neuronal marker MAP-2 in P19 cells was examined in the presence of RA and BMP-2. Three concentrations of the molecules were tested: 0.625 μM, 1.25 μM and 2.5 μM.

RR-EAE mice [1] = assay: RR-EAE model in SJL mice, clinical score; format: in vivo; details: for EAE clinical score: 10 mg/kg/day i.p.
Experimental: RR-EAE was induced in SJL female mice (6-8 week old) by subcutaneous immunization (day 0) with 100 μg/mouse proteolipid protein peptide (PLP139-151, synthesized by Sigma-Aldrich) in 0.1 ml PBS. The peptide was emulsified in an equal volume of Complete Freund's Adjuvant (CFA, from DIFCO) containing 500 μg Mycobacterium tuberculosis H37RA (MT, from DIFCO). The mice also received an intraperitoneal injection of 300 ng pertussis toxin (PTX, from Sigma-Aldrich) in 0.2 ml PBS. A second injection of PTX (300 ng/mouse) was given 48 h later.
Mice were monitored for symptoms of RR-EAE and were scored as follows: “0” for no disease; “1”, tail paralysis; “2”, hind limb weakness; “3”, hind limb paralysis; “4”, hind limb and forelimb weakness/paralysis; “5”, moribund.
The effect of the small molecule inhibitors that were identified in Example 1 above was further tested in vivo using the experimental autoimmune encephalomyelitis (EAE) model in SJL mice. EAE serves as a model for Relapsing/Remitting multiple sclerosis (MS). EAE was induced as described in the experimental procedures section. SMs 1-9 or vehicle alone (5% DMSO in PBS) were daily administered by intraperitoneal injections of 250 μg/mouse (10 mg/kg/day), starting from day 9 post immunization, for the next 30 days. The animals were monitored until day 45 post-induction for symptoms of EAE and scored as follows: 0=no disease, 1=tail paralysis, 2=hind limb weakness, 3=hind limb paralysis, 4=hind limb plus forelimb paralysis, and 5=moribund.
Experiments were repeated with the 4 above-mentioned molecules SM1, SM6, SM7 & SM9. The experiment was conducted under similar conditions as the previous one, except that two dosages of the molecules were administered: a dose of 10 mg/kg and dose of 20 mg/kg, namely 250 μg/mouse and 500 μg/mouse on days 9-38 (see FIG. 4).

RR-EAE mice [2] = assay: Demyelination in EAE: LFB-H&E staining of lumbar spinal cord; format: in vivo; details: day 48 post immunization (vehicle 28.3±1.8%)
Experimental: FIGS. 6A-6B—The effect of SM1, SM6, SM7 and SM9 on demyelination. FIG. 6A: Representative images of the lumbar spinal cord section, stained with LFB (anterio lateral funiculus), of mice treated with vehicle, SM1 10 mg/kg/day, SM1 20 mg/kg/day, SM7 10 mg/kg/day, SM9 10 mg/kg/day, SM9 20 mg/kg/day, SM6 10 mg/kg/day and SM6 20 mg/kg/day. FIG. 6B: Quantification of myelinated area. […] Quantification was performed using Image J software on 6 mice/group and 3 sections/mouse.
The direct effect of the SMs on the demyelination and remyelination processes was analyzed. Spinal cord was removed from 6 mice of each group and the lumbar segment of the spinal cord was sectioned (10 μm coronal paraffin section) and was processed for LFB-H&E (luxol fast blue with H&E) for myelin and infiltrates staining.

[3] = first experiment, 10 mg/kg/day i.p. from day 9 for 30 days, vs. vehicle
[4] = second experiment, 10 and 20 mg/kg, vs. vehicle
[5] = second experiment, high dosage 20 mg/kg, days 9-38, vs. vehicle
[6] = second experiment, low dosage 10 mg/kg, days 9-38, vs. vehicle
[7] = first experiment, day 21 post immunization (vehicle 1.1±0.3)

Row | SMILES | MAP-2+ cells (P19 cells; RA + rhBMP-2 + SM 2.5 μM) | effect on neuronal phenotype (number of MAP-2+ cells) vs. RA+BMP-2 (P19 cells) | effect on EAE clinical score (RR-EAE mice [1]; [3]) | EAE clinical score (RR-EAE mice [1]; first experiment, day 19 post immunization (vehicle 1.1±0.3)) | EAE clinical score (RR-EAE mice [1]; first experiment, day 27) | number of mice with moderate-severe EAE (clinical score at least 2) (RR-EAE mice [1]; [4]) | effect on EAE clinical score (RR-EAE mice [1]; [5]) | effect on EAE clinical score (RR-EAE mice [1]; [6]) | % myelinated area (LFB-stained area of total spinal cord section) (RR-EAE mice [2]; 10 mg/kg) [%] | effect on EAE clinical score (RR-EAE mice [1]; second experiment, 10 and 20 mg/kg, days 9-38) | number of mice with a more severe EAE (RR-EAE mice [1]; second experiment, during the second relapse (vehicle 5-6 mice)) | number of mice with a more severe EAE (RR-EAE mice [1]; second experiment, during the third relapse (vehicle 8-9 mice)) | MAP-2+ cells (P19 cells; RA + rhBMP-2 + SM 1.25 μM) [%] | EAE clinical score (RR-EAE mice [1]; [7]) | mice died by the end of the experiment (RR-EAE mice [1]; second experiment, high dose group 20 mg/kg, day 48) | mice died by the end of the experiment (RR-EAE mice [1]; second experiment, low dose group 10 mg/kg, day 48, n=14) [mice] | % myelinated area (LFB-stained area of total spinal cord section) (RR-EAE mice [2]; 20 mg/kg) [%] | MAP-2+ cells (P19 cells; RA + rhBMP-2 + SM 0.625 μM (low concentration))
1 | COC(=O)c1sccc1N/N=C(\C#N)S(=O)(=O)c1cccs1 [SM1, Methyl 3-[(2E)-2-[cyano(thiophen-2-ylsulfonyl)methylidene]hydrazinyl]thiophene-2-carboxylate] | 62.2±3.9% | reversed the effect of BMP-2; also recorded: induced neuronal phenotype at all examined concentrations | beneficial effect | 0.5±0.2 | 0.3±0.3 | beneficial effect | trend for amelioration | significant beneficial effect | – | – | – | – | – | – | – | – | – | –
2 | O=C(Nc1cccc(C(F)(F)F)c1)c1ccc([N+](=O)[O-])o1 [SM6, N2-[3-(trifluoromethyl)phenyl)-5-nitro-2-furamide] | – | – | did not show any beneficial effect | – | – | reduced | – | – | 34.8±1.6 | milder and not significant | 2-3 mice | 5-7 mice | – | – | – | – | – | –
3 | N#Cc1c(O)nsc1Nc1ccccc1C(F)(F)F [SM7, 3-hydroxy-5-[2-(trifluoromethyl)aniline]isothiazole-4-carbonitrile] | No significant effect | reversed the effect of BMP-2; also recorded: induced neuronal phenotype at both the low and the mild concentrations | beneficial effect | – | – | – | – | – | 34.0±0.8 | – | – | – | 76.1±3.1 | 0.6±0.1 | all of the mice died | 8 | – | –
4 | CS(=O)(=O)c1noc(-c2ccc(Cl)cc2)c1C#N [SM9, 5-(4-chlorophenyl)-3-methylsulfonyl-1,2-oxazole-4-carbonitrile] | 80.6±10.0% | reversed the effect of BMP-2 | beneficial effect | – | – | beneficial effect | ameliorated EAE | ameliorated EAE | – | – | – | – | 76.4±12.6 | 0.8±0.3 | – | – | 34.6±1.6 | not effective
